Experimental data taken from US20190264193A1, “PROTEIN ENGINEERING METHODS” (Caribou Biosciences, Inc., priority 2016, published 2019).

What was measured:
DNA-PK [1] = target: T1, DNA-PK (Homo sapiens, UniProt P78527); test: DNA repair outcomes after Cas9 cleavage by amplicon sequencing, HEK293 plus NU7441; format: cell-based; details: JAK1 target site; 48 hours after nucleofection of sgRNP in HEK293 plus NU7441 (FIG. 6F)
Method: In order to assess DNA repair outcomes in human cells, the following experiment was conducted using methods as described in van Overbeek et al., Molecular Cell (2016) http://dx.doi.org/10.1016/j.molcel.2016.06.037. Briefly, the repair outcomes following Cas9 cleavage of double-stranded DNA, which result in blunt end products, were profiled using computational tools developed to categorize indels from a cell-based assay. To this end, HEK293, K562 and CCRF-CEM cells were transfected with pre-assembled complexes of Cas9 protein and sgRNA (single-guide RNA ribonucleoprotein complexes (sgRNPs). The Cas9/sgRNA complexes used were prepared as described in van Overbeek et al., Molecular Cell (2016) http://dx.doi.org/10.1016/j.molcel.2016.06.037. DNA repair patterns following Cas9 cleavage were analyzed by amplicon sequencing at time points as shown in FIGS. 6A-6F.
Sequencing reads were assigned to a specific indel class based on the indel type (insertion or deletion), start site, and length (or to the wild-type class), and then the frequency of each class was calculated as a fraction of aligned reads or as a fraction of mutant reads. […]

DNA-PK [2] = target: T1, DNA-PK; test: NU7441 five point dose response on DNA repair patterns after sgRNP nucleofection; format: cell-based; details: HEK293 T cells
Method: In order to assess whether compounds can alter the DNA repair pathways, the following experiment was conducted with methods as described in van Overbeek et al., Molecular Cell (2016) http://dx.doi.org/10.1016/j.molcel.2016.06.037. Briefly, to test the hypothesis that suppression of c-NHEJ would alter the DNA repair landscapes, favoring MMEJ repair outcomes, a chemical inhibitor of DNA-PK, NU7441, was added to HEK293 T cells one hour post nucleofection in a five point dose response. Genomic lysate was harvested 48 hours post nucleofection and processed.
As inhibitor concentration increased, the mean frequency of single base insertions and small deletions (<3 base pairs) decreased, whereas the mean frequency of a subset of large deletions (>3 base pairs) present in the DNA repair profiles increased. This experiment evidences that the suppression of c-NHEJ enhances DNA repair by MMEJ pathways after DSB formation by Cas9.

[3] = as inhibitor concentration increased

T1 sequence (P78527 whole entry): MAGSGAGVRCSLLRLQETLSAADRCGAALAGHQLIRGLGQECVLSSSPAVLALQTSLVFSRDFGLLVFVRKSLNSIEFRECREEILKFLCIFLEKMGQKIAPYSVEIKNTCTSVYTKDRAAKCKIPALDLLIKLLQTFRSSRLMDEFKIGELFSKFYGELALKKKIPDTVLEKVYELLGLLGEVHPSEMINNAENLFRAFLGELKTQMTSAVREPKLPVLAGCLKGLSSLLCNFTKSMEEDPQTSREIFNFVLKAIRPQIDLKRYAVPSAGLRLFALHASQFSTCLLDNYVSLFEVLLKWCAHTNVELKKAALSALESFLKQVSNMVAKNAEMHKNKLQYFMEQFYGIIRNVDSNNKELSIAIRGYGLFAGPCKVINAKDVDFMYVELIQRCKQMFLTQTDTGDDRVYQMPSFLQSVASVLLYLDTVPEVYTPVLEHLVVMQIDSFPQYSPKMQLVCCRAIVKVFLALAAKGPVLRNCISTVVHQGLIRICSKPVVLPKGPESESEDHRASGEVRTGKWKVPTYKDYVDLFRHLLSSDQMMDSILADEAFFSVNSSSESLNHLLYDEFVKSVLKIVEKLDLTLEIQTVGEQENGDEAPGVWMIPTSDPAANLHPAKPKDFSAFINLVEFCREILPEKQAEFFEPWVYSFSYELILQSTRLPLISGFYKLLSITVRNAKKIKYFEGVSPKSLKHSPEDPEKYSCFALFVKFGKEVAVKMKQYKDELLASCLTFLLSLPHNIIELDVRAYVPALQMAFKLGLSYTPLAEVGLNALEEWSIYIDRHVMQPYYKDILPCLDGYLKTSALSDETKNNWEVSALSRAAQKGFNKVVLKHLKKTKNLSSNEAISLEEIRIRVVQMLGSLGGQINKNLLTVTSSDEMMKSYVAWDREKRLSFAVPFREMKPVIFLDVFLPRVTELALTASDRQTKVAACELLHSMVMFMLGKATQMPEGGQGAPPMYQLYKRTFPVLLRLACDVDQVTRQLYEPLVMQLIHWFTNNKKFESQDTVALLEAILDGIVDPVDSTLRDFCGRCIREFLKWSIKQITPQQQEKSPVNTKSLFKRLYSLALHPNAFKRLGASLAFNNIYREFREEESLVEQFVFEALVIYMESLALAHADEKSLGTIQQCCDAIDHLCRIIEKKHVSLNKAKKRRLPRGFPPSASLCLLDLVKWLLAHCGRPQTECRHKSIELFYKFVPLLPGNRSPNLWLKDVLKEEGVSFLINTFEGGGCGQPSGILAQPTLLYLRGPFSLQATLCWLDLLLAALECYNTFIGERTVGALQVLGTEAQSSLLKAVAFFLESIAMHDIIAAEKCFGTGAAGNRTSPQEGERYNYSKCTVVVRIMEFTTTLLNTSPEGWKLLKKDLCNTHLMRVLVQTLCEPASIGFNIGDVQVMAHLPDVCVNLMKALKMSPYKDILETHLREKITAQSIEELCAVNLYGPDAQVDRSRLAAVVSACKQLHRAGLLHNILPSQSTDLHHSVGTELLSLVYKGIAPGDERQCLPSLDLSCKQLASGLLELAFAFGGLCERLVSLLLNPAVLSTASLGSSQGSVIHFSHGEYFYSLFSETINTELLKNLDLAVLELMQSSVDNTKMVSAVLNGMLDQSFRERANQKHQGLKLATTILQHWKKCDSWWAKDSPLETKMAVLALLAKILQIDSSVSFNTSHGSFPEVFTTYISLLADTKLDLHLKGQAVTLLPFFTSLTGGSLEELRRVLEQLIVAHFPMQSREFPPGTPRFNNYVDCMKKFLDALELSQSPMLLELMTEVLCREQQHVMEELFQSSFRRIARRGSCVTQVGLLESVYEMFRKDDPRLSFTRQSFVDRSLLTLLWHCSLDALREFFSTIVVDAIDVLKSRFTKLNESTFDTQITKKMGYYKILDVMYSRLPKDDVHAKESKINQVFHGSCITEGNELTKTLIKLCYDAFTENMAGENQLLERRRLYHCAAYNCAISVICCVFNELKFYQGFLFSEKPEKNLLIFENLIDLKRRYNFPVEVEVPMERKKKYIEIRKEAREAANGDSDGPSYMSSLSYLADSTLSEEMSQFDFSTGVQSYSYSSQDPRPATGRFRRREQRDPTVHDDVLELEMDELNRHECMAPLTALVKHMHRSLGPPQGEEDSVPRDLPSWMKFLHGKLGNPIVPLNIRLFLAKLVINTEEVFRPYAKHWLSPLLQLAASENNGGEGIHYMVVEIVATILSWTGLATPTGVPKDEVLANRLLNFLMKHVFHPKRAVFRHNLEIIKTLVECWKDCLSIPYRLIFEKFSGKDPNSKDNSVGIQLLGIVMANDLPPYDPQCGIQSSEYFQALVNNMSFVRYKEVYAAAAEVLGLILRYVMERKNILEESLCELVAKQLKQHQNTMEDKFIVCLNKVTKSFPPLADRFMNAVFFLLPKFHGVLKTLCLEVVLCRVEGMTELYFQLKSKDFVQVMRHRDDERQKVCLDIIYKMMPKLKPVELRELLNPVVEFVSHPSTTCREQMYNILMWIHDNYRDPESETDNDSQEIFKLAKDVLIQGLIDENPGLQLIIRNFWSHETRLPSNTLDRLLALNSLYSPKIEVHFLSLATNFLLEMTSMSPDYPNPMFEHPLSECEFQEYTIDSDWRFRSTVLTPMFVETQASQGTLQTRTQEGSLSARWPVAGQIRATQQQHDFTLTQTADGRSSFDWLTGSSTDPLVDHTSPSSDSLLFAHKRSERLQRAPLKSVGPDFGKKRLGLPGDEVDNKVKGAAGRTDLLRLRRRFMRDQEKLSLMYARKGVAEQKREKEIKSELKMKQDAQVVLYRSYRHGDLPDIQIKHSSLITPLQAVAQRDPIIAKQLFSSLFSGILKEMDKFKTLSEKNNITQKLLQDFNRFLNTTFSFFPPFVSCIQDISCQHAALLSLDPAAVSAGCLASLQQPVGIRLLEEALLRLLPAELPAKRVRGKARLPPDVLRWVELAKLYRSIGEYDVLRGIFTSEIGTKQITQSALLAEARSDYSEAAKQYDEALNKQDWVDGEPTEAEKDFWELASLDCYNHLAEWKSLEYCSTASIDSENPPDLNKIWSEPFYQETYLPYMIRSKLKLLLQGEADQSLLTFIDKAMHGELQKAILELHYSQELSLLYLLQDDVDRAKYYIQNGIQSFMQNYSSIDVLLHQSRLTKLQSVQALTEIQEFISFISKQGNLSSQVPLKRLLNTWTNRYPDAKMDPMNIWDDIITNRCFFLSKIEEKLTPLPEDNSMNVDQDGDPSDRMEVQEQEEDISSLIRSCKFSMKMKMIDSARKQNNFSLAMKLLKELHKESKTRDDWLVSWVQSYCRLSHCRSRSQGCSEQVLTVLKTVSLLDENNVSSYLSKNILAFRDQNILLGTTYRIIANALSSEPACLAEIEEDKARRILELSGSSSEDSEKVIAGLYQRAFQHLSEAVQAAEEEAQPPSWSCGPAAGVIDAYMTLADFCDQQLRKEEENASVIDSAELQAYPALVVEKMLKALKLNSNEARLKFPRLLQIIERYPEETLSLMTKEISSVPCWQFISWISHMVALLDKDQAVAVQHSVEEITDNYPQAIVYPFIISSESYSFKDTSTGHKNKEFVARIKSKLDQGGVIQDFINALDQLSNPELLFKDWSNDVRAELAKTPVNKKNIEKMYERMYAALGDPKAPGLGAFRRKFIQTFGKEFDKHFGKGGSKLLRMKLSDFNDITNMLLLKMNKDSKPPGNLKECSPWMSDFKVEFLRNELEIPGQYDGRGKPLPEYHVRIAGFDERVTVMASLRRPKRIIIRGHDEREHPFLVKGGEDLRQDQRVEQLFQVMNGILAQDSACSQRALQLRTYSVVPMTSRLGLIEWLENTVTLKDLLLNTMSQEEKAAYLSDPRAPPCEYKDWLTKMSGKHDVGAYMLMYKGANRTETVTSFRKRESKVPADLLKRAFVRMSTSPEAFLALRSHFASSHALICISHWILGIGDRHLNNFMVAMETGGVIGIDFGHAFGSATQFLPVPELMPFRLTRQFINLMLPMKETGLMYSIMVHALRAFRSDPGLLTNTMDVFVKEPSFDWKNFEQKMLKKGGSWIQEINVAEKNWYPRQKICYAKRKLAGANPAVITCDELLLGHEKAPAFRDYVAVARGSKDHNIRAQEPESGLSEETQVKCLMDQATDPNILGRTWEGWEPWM

O=c1cc(N2CCOCC2)oc2c(-c3cccc4c3sc3ccccc34)cccc12 [NU7441]
DNA repair outcomes (classes and frequency) compared with FIG. 6A (HEK293 without inhibitor) (DNA-PK [1]): different DNA repair outcomes
mean frequency of a subset of large deletions (>3 base pairs) (DNA-PK [2]; [3]): increased
mean frequency of single base insertions and small deletions (<3 base pairs) (DNA-PK [2]; [3]): decreased
change of the DNA repair patterns compared with untreated samples (DNA-PK [2]; lowest concentration of inhibitor 1.56 μM, 12 different target sites, added one hour post nucleofection, harvested 48 hours): a change of the DNA repair patterns at 12 different target sites compared with untreated samples was apparent
